Reference: patent US20230365563A1, “QUINAZOLINE COMPOUND AND APPLICATION THEREOF” (SHANGHAI PHARMACEUTICALS HOLDING CO., LTD., priority 2020, published 2023)
Structures can show the parent of a compound that is named as a salt.

Experiments:
KRAS_WT and SOS1 = biological target: T1, KRAS_WT and SOS1 (Homo sapiens, UniProt P01116); experiment: Inhibition of KRAS_WT/SOS1 binding (Cisbio binding kit, 665/615 ratio), Effect Embodiment C; details: read-out: GTP-KRAS-WT:SOS1 IC50
T1 construct: purchased
Procedure, shortened: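 Compounds tested as 3-fold, 11-point dilutions in duplicate at 1% DMSO final against the KRAS_WT/SOS1 binding system. IC50 derived by nonlinear regression fit.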

KRAS_G12D and cRAF = biological target: T2, KRAS_G12D and cRAF (Homo sapiens, UniProt P01116, G12D); experiment: Inhibition of KRAS_G12D/cRAF binding (Cisbio binding kit, 665/615 ratio), Effect Embodiment B; details: read-out: GTP-KRAS-G12D:CRAF IC50
T2 construct: purchased
Procedure, shortened: (§1)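 Compounds are tested over eleven threefold dilution steps in duplicate, with final DMSO at 1%.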

KRAS-G12D and SOS1 = biological target: T3, KRAS-G12D and SOS1 (Homo sapiens, UniProt P01116, G12D); experiment: Inhibition of KRAS-G12D/SOS1 binding (Cisbio binding kit, 665/615 ratio), Effect Embodiment A; details: read-out: GTP-KRAS-G12D:SOS1 IC50
T3 construct: purchased
Procedure, shortened: as §1

T1 sequence (P01116 1-188 isoform P01116-2): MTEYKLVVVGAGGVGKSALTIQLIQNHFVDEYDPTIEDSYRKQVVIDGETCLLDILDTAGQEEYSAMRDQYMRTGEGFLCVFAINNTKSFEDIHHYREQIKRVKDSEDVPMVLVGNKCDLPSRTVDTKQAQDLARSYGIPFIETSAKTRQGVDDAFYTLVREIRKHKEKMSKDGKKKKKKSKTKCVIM
T3 sequence (P01116 1-188 isoform P01116-2 G12D): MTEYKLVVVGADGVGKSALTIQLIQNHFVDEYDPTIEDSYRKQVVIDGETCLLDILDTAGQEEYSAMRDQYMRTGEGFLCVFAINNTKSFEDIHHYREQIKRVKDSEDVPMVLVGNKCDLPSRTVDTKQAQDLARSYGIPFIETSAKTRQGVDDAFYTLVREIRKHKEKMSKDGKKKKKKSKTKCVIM
T2 sequence (P01116 1-188 isoform P01116-2 G12D): as above

| IC50 (KRAS_WT and SOS1) | IC50 (KRAS_G12D and cRAF) | IC50 (KRAS-G12D and SOS1) | SMILES |
| --- | --- | --- | --- |
| 6390 nM | 251 nM | 87.6 nM | CN(C)C12CC(COc3nc(N4CC5CCC(C4)N5)c4cc(Cl)c(-c5cc(O)cc6ccccc56)c(F)c4n3)(C1)C2 (single isomer, unassigned) [Compound 127, 4-((S or R)-4-((1R,5S)-3,8-diazabicyclo[3.2.1]octan-3-yl)-6-chloro-2-((3-(dimethylamino)bicyclo[1.1.1]pentan-1-yl)methoxy)-8-fluoroquinazolin-7-yl)naphthalen-2-ol hydrochloride] |
| 2970 nM | 122 nM | 28.6 nM | CN(CCCOc1nc(N2CC3CCC(C2)N3)c2cc(Cl)c(-c3cc(O)cc4ccccc34)c(F)c2n1)CCC(O)CO (single isomer, unassigned) [Compound 148, 4-((3-((S or R)-4-((1R,5S)-3,8-diazabicyclo[3.2.1]octan-3-yl)-6-chloro-8-fluoro-7-(3-hydroxynaphthalen-1-yl)quinazolin-2-yl)oxy)propyl)(methyl)amino)butan-1,2-diol ditrifluoroacetate] |
| 854 nM | 96.9 nM | 39.6 nM | Cc1cc2c(N3CC4CCC(C3)N4)nc(OCCCN(C)C)nc2c(F)c1-c1cc(O)cc2ccccc12 (single isomer, unassigned) [Compound 149a, 4-((R or S)-4-((1R,5S)-3,8-diazabicyclo[3.2.1]octan-3-yl)-2-(3-(dimethylamino)propoxy)-8-fluoro-6-methylquinazolin-7-yl)naphthalen-2-ol hydrochloride] |
| 2040 nM | 114 nM | 39.2 nM | N=C(N)NCCCOc1nc(N2CC3CCC(C2)N3)c2cc(Cl)c(-c3cc(O)cc4ccccc34)c(F)c2n1 (single isomer, unassigned) [Compound 150, 1-(3-((4-((1R,5S)-3,8-diazabicyclo[3.2.1]octan-3-yl)-6-chloro-8-fluoro-7-((S or R)-3-hydroxynaphthalen-1-yl)quinazolin-2-yl)oxy)propyl)guanidine diformate] |
| 243 nM | 312 nM | 78.8 nM | CN1CCC[C@H]1COc1nc(N2CCN(C(=O)CN)[C@@H](CC#N)C2)c2cc(Cl)c(-c3cc(O)cc4ccccc34)c(F)c2n1 (single isomer, unassigned) [Compound 155, 2-((S)-4-((S or R)-6-chloro-8-fluoro-7-(3-hydroxynaphthalen-1-yl)-2-((S)-1-methylpyrrolidine-2-yl)methoxy)quinazolin-4-yl)-1-glycylpiperazin-2-yl)acetonitrile ditrifluoroacetate] |
| 152 nM | 15.1 nM | 19.4 nM | CN1CCC[C@H]1COc1nc(N2CC3CCC(C2)N3)c2cc(F)c(-c3cc(O)cc4ccccc34)c(F)c2n1 (single isomer, unassigned) [Compound 160a, (R or S) 4-(4-((1R,5S)-3,8-diazabicyclo[3.2.1]octan-3-yl)-6,8-difluoro-2-((S)-1-methylpyrrolidin-2-yl)methoxy)quinazolin-7-yl)naphthalen-2-ol dihydrochloride] |
| 787 nM | 49.8 nM | 18.6 nM | Oc1cc(-c2c(Cl)cc3c(N4CC5CCC(C4)N5)nc(OC[C@@H]4CCCN4C4CC4)nc3c2F)c2ccccc2c1 (single isomer, unassigned) [Compound 163, 4-((R or S)-4-((1R,5S)-3,8-diazabicyclo[3.2.1]octan-3-yl)-6-chloro-2-((S)-1-cyclopropylpyrrolidin-2-yl)methoxy)-8-fluoroquinazolin-7-yl)naphthalen-2-ol dihydrochloride] |
| 2530 nM | 115 nM | 43.9 nM | C[C@@H]1COC[C@@H](C)N1CCCOc1nc(N2C[C@H]3CC[C@@H](C2)N3)c2cc(Cl)c(-c3cc(O)cc4ccccc34)c(F)c2n1 (single isomer, unassigned) [Compound 164, (R or S)-4-(4-((1R,5S)-3,8-diazabicyclo[3.2.1]octan-3-yl)-6-chloro-2-(3-((3R,5R)-3,5-dimethylmorpholinyl)propoxy)-8-fluoroquinazolin-7-yl)naphthalen-2-ol dihydrochloride] |
| 1880 nM | 85.4 nM | 27.8 nM | Oc1cc(-c2c(Cl)cc3c(N4C[C@H]5CC[C@@H](C4)N5)nc(OCCCN4C[C@@H]5C[C@H]4CO5)nc3c2F)c2ccccc2c1 (single isomer, unassigned) [Compound 165, (R or S)-4-(2-(3-((1S,4S)-2-oxa-5-azabicyclo[2.2.1]heptan-5-yl)propoxy)-4-((1R,5S)-3,8-diazabicyclo[3.2.1]octan-3-yl)-6-chloro-8-fluoroquinazolin-7-yl)naphthalen-2-ol dihydrochloride] |
| 553 nM | 31.9 nM | 25 nM | CO[C@@H]1C[C@@H](COc2nc(N3CC4CCC(C3)N4)c3cc(Cl)c(-c4cc(O)cc5ccccc45)c(F)c3n2)N(C)C1 (single isomer, unassigned) [Compound 166, (R or S)-4-(4-((1R,5S)-3,8-diazabicyclo[3.2.1]octan-3-yl)-6-chloro-8-fluoro-2-((2S,4R)-4-methoxy-1-methylpyrrolidin-2-yl)methoxy)quinazolin-7-yl)naphthalenol dihydrochloride] |
| 248 nM | 19.5 nM | 17.9 nM | CN1CC2(CC2)C[C@H]1COc1nc(N2C[C@H]3CC[C@@H](C2)N3)c2cc(Cl)c(-c3cc(O)cc4ccccc34)c(F)c2n1 (single isomer, unassigned) [Compound 167, (R or S)-4-(4-((1R,5S)-3,8-diazabicyclo[3.2.1]octan-3-yl)-6-chloro-8-fluoro-2-(((S)-5-methyl-5-azaspiro[2.4]heptan-6-yl)methoxy)quinazolin-7-yl)naphthalen-2-ol dihydrochloride] |
| 458 nM | 22.4 nM | 18.7 nM | CN1C[C@H](F)C[C@H]1COc1nc(N2CC3CCC(C2)N3)c2cc(Cl)c(-c3cc(O)cc4ccccc34)c(F)c2n1 (single isomer, unassigned) [Compound 168, (R or S)-4-(4-((1R,5S)-3,8-diazabicyclo[3.2.1]octan-3-yl)-6-chloro-8-fluoro-2-((2S,4R)-4-fluoro-1-methylpyrrolidin-2-yl)methoxy)quinazolin-7-yl)naphthalenol dihydrochloride] |
| 1870 nM | 71.3 nM | 39.2 nM | Oc1cc(-c2c(Cl)cc3c(N4C[C@H]5CC[C@@H](C4)N5)nc(OCCCN4C[C@H]5C[C@@H]4CO5)nc3c2F)c2ccccc2c1 (single isomer, unassigned) [Compound 169, (R or S)-4-(2-(3-((1R,4R)-2-oxa-5-azabicyclo[2.2.1]heptan-5-yl)propoxy)-4-((1R,5S)-3,8-diazabicyclo[3.2.1]octan-3-yl)-6-chloro-8-fluoroquinazolin-7-yl)naphthalen-2-ol dihydrochloride] |
| 395 nM | 60.4 nM | 24.8 nM | C[C@@H]1C[C@@H](COc2nc(N3CC4CCC(C3)N4)c3cc(Cl)c(-c4cc(O)cc5ccccc45)c(F)c3n2)N(C)C1 (single isomer, unassigned) [Compound 171, (R or S)-4-(4-((1R,5S)-3,8-diazabicyclo[3.2.1]octan-3-yl)-6-chloro-2-((2S,4R)-1.4-dimethylpyrrolidin-2-yl)methoxy)-8-fluoroquinazolin-7-yl)naphthalen-2-ol dihydrochloride] |
| 251 nM | 37.9 nM | 14.8 nM | Oc1cc(-c2c(Cl)cc3c(N4CC5CCC(C4)N5)nc(OCC4(CN5C6CCC5COC6)CCC4)nc3c2F)c2ccccc2c1 (single isomer, unassigned) [Compound 173, (4R or S)-4-(2-((1-((3-oxa-8-azabicyclo[3.2.1]octan-8-yl)methyl)cyclobutyl)methoxy)-4-((1R,5S)-3,8-diazabicyclo[3.2.1]octan-3-yl)-6-chloro-8-fluoroquinazolin-7-yl)naphthalen-2-ol dihydrochloride] |
| 1820 nM | 170 nM | 57.8 nM | C[C@H]1COCCN1CCCOc1nc(N2C[C@H]3CC[C@@H](C2)N3)c2cc(Cl)c(-c3cc(O)cc4ccccc34)c(F)c2n1 (single isomer, unassigned) [Compound 174, (R or S)-4-(4-((1R,5S)-3,8-diazabicyclo[3.2.1]octan-3-yl)-6-chloro-8-fluoro-2-(3-((S)-3-methylmorpholinyl)propoxy)quinazolin-7-yl)naphthalen-2-ol diformate] |
| 4300 nM | 303 nM | 104 nM | C[C@@H]1COC[C@H](C)N1CCCOc1nc(N2CC3CCC(C2)N3)c2cc(Cl)c(-c3cc(O)cc4ccccc34)c(F)c2n1 (single isomer, unassigned) [Compound 175, (R or S)-4-(4-((1R,5S)-3,8-diazabicyclo[3.2.1]octan-3-yl)-6-chloro-2-(3-((3R,5S)-3,5-dimethylmorpholinyl)propoxy)-8-fluoroquinazolin-7-yl)naphthalen-2-ol formate] |

| SMILES | IC50 (KRAS_WT and SOS1) | IC50 (KRAS_G12D and cRAF) | IC50 (KRAS-G12D and SOS1) |
| --- | --- | --- | --- |
| CN1CCC[C@H]1COc1nc(N2CC3CCC(C2)N3)c2cc(Cl)c(-c3cc(O)cc4ccccc34)c(F)c2n1 (single isomer, unassigned) [Compound 170, (R or S)-4-(4-((1R,5S)-3,8-diazabicyclo[3.2.1]octan-3-yl)-6-chloro-8-fluoro-2-((S)-1-methylpyrrolidin-2-yl)methoxy)quinazolin-7-yl)naphthalen-2-ol dihydrochloride] | 270 nM | 24.4 nM | 12.8 nM |
